Laboratory results from PMC8074287, “Analgesic and Anticancer Activity of Benzoxazole Clubbed 2-Pyrrolidinones as Novel Inhibitors of Monoacylglycerol Lipase” (Molecules, 2021).
Entries after “also recorded” stand apart in the source; their conditions may differ.

What was measured:
[1] = tested on: formalin-induced nociception; test: Formalin-induced analgesic (nociception) test; type: in vivo, Male Wistar rats
Source text: The formalin-induced analgesic test is an extensively acknowledged animal nociception model. In order to evaluate both central and peripheral effects of the compound (20), formalin-induced nociception model was selected for analgesic activity. The formalin induced behavioral response comprises two typical phases, stage I and II. Stage I persists up to five minutes after formalin injection and is characterized by acute pain with vigorous licking and biting of the injected site. Stage I consists the action formalin on afferent C-fiber nociceptors. While Stage II starts 10–30 min after formalin injection and persists till 60 min, characterized by periodic licking and biting of the injected site. Stage II imitates the action of central sensitization of the spinal dorsal horn neurons.
Figure 5 Formalin-induced analgesic test; a dose of the test compound 20 (5, 10, 30, and 50 mg/kg, p.o, suspended in 0.5% CMC) was administered 4 h before formalin injection (50 µL, 2.5%). Reference drug, gabapentin (100 mg/kg, i.p, dissolved in 0.9% normal saline) was injected 30 min before formalin injection. Total paw licking and biting duration, Stage I (white bar, 0–5 min) and stage II (black bar, 10–30 min) was recorded as a measure of pain behavior. Data is represented as mean ± SEM from a group of 10 animals. * p < 0.05, ** p < 0.01, p > 0.05 (NS, nonsignificant) vs. control (vehicle). GBP: Gabapentin; D5, D10, D30, andD50 are the dose concentrations of test compound 20.
Male Wistar rats (180–200 g) were obtained with the permission of IAEC (proposal number 1048) from Jamia Hamdard, New Delhi, India. The results of test compound 20 and reference drug, Gabapentin (GBP), were statistically compared with the control group.

[2] = molecular target: T1, hMAGL (Homo sapiens, UniProt Q99685); test: Human MAGL inhibition assay (Cayman's assay kit)
T1 sequence (Q99685 1-303): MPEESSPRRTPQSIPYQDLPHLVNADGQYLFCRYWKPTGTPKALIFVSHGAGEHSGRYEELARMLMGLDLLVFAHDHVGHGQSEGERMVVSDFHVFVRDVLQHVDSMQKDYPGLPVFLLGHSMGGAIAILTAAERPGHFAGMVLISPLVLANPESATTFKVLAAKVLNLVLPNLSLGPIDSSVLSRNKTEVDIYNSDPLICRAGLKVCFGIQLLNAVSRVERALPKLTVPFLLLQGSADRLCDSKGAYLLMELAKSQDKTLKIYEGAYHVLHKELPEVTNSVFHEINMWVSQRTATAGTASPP

Structure (SMILES) | pain response in acute (Stage I) and late (Stage II) phases ([1]; 5, 10, 30, and 50 mg/kg p.o., 4 h prior to formalin injection) | reduction in pain response compared with positive control GBP ([1]; at 30 mg/kg p.o., GBP 100 mg/kg i.p.) | IC50 [2]
NS(=O)(=O)c1ccc(N2CC(c3nc4ccccc4o3)CC2=O)cc1 (stereo not shown) [Compound 20, 4-(4-(Benzo[d]oxazol-2-yl)-2-oxopyrrolidin-1-yl)benzenesulfonamide] | reduced the pain response in acute and late stages in a dose-dependent manner; also recorded: reduced the pain response significantly both in acute (Stage I) and late (Stage II) phases, in a dose-dependent manner; also recorded: reduced the pain response significantly both in acute (stage I) and late (stage II) phases in a dose-dependent manner | better potency than the positive control gabapentin (GBP) | 7.6 ± 0.8 nM
O=C1CC(c2nc3ccccc3o2)CN1c1ccc([N+](=O)[O-])cc1 (stereo not shown) [Compound 19, 4-(Benzo[d]oxazol-2-yl)-1-(4-nitrophenyl)pyrrolidin-2-one] | – | – | 8.4 ± 1.9 nM
